Patent US20100041089A1, “IMPROVED METHOD FOR DETECTING CHEMICAL […]” (priority 2006, published 2010)

Test system: yeast genes (expressed mRNA)
Test: DNA chip measurement of expressed mRNA of yeast genes after culture with a toxic chemical substance
Type: cell-based, Saccharomyces cerevisiae S288C
In short: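 Expression is given as treated/untreated fluorescence ratio on a whole-genome yeast DNA chip, a ratio of two or more being significant. Log-phase S288C cultures in YPD at 25 °C received the chemical for 2 h at a dose that slows growth without killing. mRNA was reverse-transcribed with Cy3- or Cy5-dUTP.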

With `COc1cc(CNC(=O)CCCCC=CC(C)C)ccc1O` [(12), 8-Methyl-N-vanillyl-6-nonenamide] the “The level of expressed mRNA in the presence of chemical substance/The level of expressed mRNA in the absence of chemical substance” value (yeast gene YJL151C, cultured two hours with substance) was 1.3, the “The level of expressed mRNA in the presence of chemical substance/The level of expressed mRNA in the absence of chemical substance” value (yeast gene YJL152W, cultured two hours with substance) was 1.0 and the “The level of expressed mRNA in the presence of chemical substance/The level of expressed mRNA in the absence of chemical substance” value (yeast gene YJL161W, cultured two hours with substance) was 1.0. The “The level of expressed mRNA in the presence of chemical substance/The level of expressed mRNA in the absence of chemical substance” value (yeast gene YJL165C (stress protein genes)) was 0.9, the “The level of expressed mRNA in the presence of chemical substance/The level of expressed mRNA in the absence of chemical substance” value (yeast gene YJL171C, cultured two hours with substance) was 1.0 and the “The level of expressed mRNA in the presence of chemical substance/The level of expressed mRNA in the absence of chemical substance” value (yeast gene YJL186W, cultured two hours with substance) was 0.6. The “The level of expressed mRNA in the presence of chemical substance/The level of expressed mRNA in the absence of chemical substance” value (yeast gene YJR008W, cultured two hours with substance) was 1.3, the “The level of expressed mRNA in the presence of chemical substance/The level of expressed mRNA in the absence of chemical substance” value (yeast gene YJR054W, cultured two hours with substance) was 0.9 and the “The level of expressed mRNA in the presence of chemical substance/The level of expressed mRNA in the absence of chemical substance” value (yeast gene YKL071W, cultured two hours with substance) was 1.0. For the same molecule, the “The level of expressed mRNA in the presence of chemical substance/The level of expressed mRNA in the absence of chemical substance” value (yeast gene YKL086W, cultured two hours with substance) was 0.6, the “The level of expressed mRNA in the presence of chemical substance/The level of expressed mRNA in the absence of chemical substance” value (yeast gene YKL151C, cultured two hours with substance) was 1.0 and the “The level of expressed mRNA in the presence of chemical substance/The level of expressed mRNA in the absence of chemical substance” value (yeast gene YKL152C, cultured for two hours with substance) was 1.5. The “The level of expressed mRNA in the presence of chemical substance/The level of expressed mRNA in the absence of chemical substance” value (yeast gene YKL153W, cultured two hours with substance) was 1.1, the “The level of expressed mRNA in the presence of chemical substance/The level of expressed mRNA in the absence of chemical substance” value (yeast gene YKL195W, cultured two hours with substance) was 1.1 and the “The level of expressed mRNA in the presence of chemical substance/The level of expressed mRNA in the absence of chemical substance” value (yeast gene YKL213C, metabolism protein genes) was 0.9. The “The level of expressed mRNA in the presence of chemical substance/The level of expressed mRNA in the absence of chemical substance” value (yeast gene YKR075C, cultured two hours with substance) was 2.3, the “The level of expressed mRNA in the presence of chemical substance/The level of expressed mRNA in the absence of chemical substance” value (yeast gene YKR091W, cultured two hours with substance) was 0.9 and the “The level of expressed mRNA in the presence of chemical substance/The level of expressed mRNA in the absence of chemical substance” value (yeast gene YLR008C, cultured two hours with substance) was 3.5. For the same molecule, the “The level of expressed mRNA in the presence of chemical substance/The level of expressed mRNA in the absence of chemical substance” value (yeast gene YLR054C, cultured two hours with substance) was 1.1, the “The level of expressed mRNA in the presence of chemical substance/The level of expressed mRNA in the absence of chemical substance” value (yeast gene YLR103C, DNA repair protein genes, cultured two hours with substance) was 1.6 and the “The level of expressed mRNA in the presence of chemical substance/The level of expressed mRNA in the absence of chemical substance” value (yeast gene YLR149C, cultured two hours with substance) was 2.0. For the same molecule, the “The level of expressed mRNA in the presence of chemical substance/The level of expressed mRNA in the absence of chemical substance” value (yeast gene YLR152C, cultured two hours with substance) was 1.0, the “The level of expressed mRNA in the presence of chemical substance/The level of expressed mRNA in the absence of chemical substance” value (yeast gene YLR194C, cultured two hours with substance) was 1.6 and the “The level of expressed mRNA in the presence of chemical substance/The level of expressed mRNA in the absence of chemical substance” value (yeast gene YLR273C) was 0.9. For the same molecule, the “The level of expressed mRNA in the presence of chemical substance/The level of expressed mRNA in the absence of chemical substance” value (yeast gene YLR324W, cultured two hours with substance) was 0.8, the “The level of expressed mRNA in the presence of chemical substance/The level of expressed mRNA in the absence of chemical substance” value (yeast gene YLR345W, cultured for two hours with substance) was 1.6 and the “The level of expressed mRNA in the presence of chemical substance/The level of expressed mRNA in the absence of chemical substance” value (yeast gene YLR346C, cultured two hours with substance) was 4.2. For the same molecule, the “The level of expressed mRNA in the presence of chemical substance/The level of expressed mRNA in the absence of chemical substance” value (yeast gene YLR348C, metabolism protein genes) was 0.9, the “The level of expressed mRNA in the presence of chemical substance/The level of expressed mRNA in the absence of chemical substance” value (yeast gene YLR350W, cultured two hours with substance) was 1.8 and the “The level of expressed mRNA in the presence of chemical substance/The level of expressed mRNA in the absence of chemical substance” value (yeast gene YLR387C, cultured two hours with substance) was 1.1. For the same molecule, the “The level of expressed mRNA in the presence of chemical substance/The level of expressed mRNA in the absence of chemical substance” value (yeast gene YLR460C, cultured two hours with substance) was 0.4, the “The level of expressed mRNA in the presence of chemical substance/The level of expressed mRNA in the absence of chemical substance” value (yeast gene YML054C, cultured for two hours with substance) was 1.8 and the “The level of expressed mRNA in the presence of chemical substance/The level of expressed mRNA in the absence of chemical substance” value (yeast gene YML117W, cultured two hours with substance) was 0.8. The “The level of expressed mRNA in the presence of chemical substance/The level of expressed mRNA in the absence of chemical substance” value (yeast gene YMR009W, cultured two hours with substance) was 0.6, the “The level of expressed mRNA in the presence of chemical substance/The level of expressed mRNA in the absence of chemical substance” value (yeast gene YMR067C, cultured two hours with substance) was 1.1 and the “The level of expressed mRNA in the presence of chemical substance/The level of expressed mRNA in the absence of chemical substance” value (yeast gene YMR090W, cultured two hours with substance) was 2.2. The “The level of expressed mRNA in the presence of chemical substance/The level of expressed mRNA in the absence of chemical substance” value (yeast gene YMR095C, cultured two hours with substance) was 0.8, the “The level of expressed mRNA in the presence of chemical substance/The level of expressed mRNA in the absence of chemical substance” value (yeast gene YMR097C, cultured two hours with substance) was 1.2 and the “The level of expressed mRNA in the presence of chemical substance/The level of expressed mRNA in the absence of chemical substance” value (yeast gene YMR102C, cultured two hours with substance) was 2.4. The “The level of expressed mRNA in the presence of chemical substance/The level of expressed mRNA in the absence of chemical substance” value (yeast gene YMR107W, cultured two hours with substance) was 0.8, the “The level of expressed mRNA in the presence of chemical substance/The level of expressed mRNA in the absence of chemical substance” value (yeast gene YMR180C, cultured two hours with substance) was 1.2 and the “The level of expressed mRNA in the presence of chemical substance/The level of expressed mRNA in the absence of chemical substance” value (yeast gene YMR184W, cultured two hours with substance) was 1.7. For the same molecule, the “The level of expressed mRNA in the presence of chemical substance/The level of expressed mRNA in the absence of chemical substance” value (yeast gene YMR191W, cultured two hours with substance) was 1.8, the “The level of expressed mRNA in the presence of chemical substance/The level of expressed mRNA in the absence of chemical substance” value (yeast gene YMR215W, cultured two hours with the chemical substance) was 0.4 and the “The level of expressed mRNA in the presence of chemical substance/The level of expressed mRNA in the absence of chemical substance” value (yeast gene YMR295C, cultured two hours with substance) was 1.1. For the same molecule, the “The level of expressed mRNA in the presence of chemical substance/The level of expressed mRNA in the absence of chemical substance” value (yeast gene YMR315W, cultured two hours with substance) was 2.0, the “The level of expressed mRNA in the presence of chemical substance/The level of expressed mRNA in the absence of chemical substance” value (yeast gene YMR316W, cultured two hours with substance) was 1.9 and the “The level of expressed mRNA in the presence of chemical substance/The level of expressed mRNA in the absence of chemical substance” value (yeast gene YNL044W, cultured two hours with substance) was 1.0. For the same molecule, the “The level of expressed mRNA in the presence of chemical substance/The level of expressed mRNA in the absence of chemical substance” value (yeast gene YNL045W, metabolism protein genes) was 0.9 and the “The level of expressed mRNA in the presence of chemical substance/The level of expressed mRNA in the absence of chemical substance” value (yeast gene YNL074C, cultured two hours with substance) was 0.9.
